Measurements taken from the supplement of paper PMC10307832.

How the values were obtained:
Assay in all cases: relative viability (nuclei count vs DMSO), 5 days (fraction); higher = more cells survive
Bleomycin + Crizotinib = compound: CC1=C(N=C(N=C1N)[C@H](CC(=O)N)NC[C@@H](C(=O)N)N)C(=O)N[C@@H]([C@H](C2=CN=CN2)OC3C(C(C(C(O3)CO)O)O)OC4C(C(C(C(O4)CO)O)OC(=O)N)O)C(=O)N[C@H](C)[C@H]([C@H](C)C(=O)N[C@@H]([C@@H](C)O)C(=O)NCCC5=NC(=CS5)C6=NC(=CS6)C(=O)NCCC[S+](C)C)O [Bleomycin] + C[C@@H](Oc1cc(-c2cnn(C3CCNCC3)c2)cnc1N)c1c(Cl)ccc(F)c1Cl [Crizotinib] (partner 1 µM); conditions: main component drawn
Procedure, shortened: (§1)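 Five library-drug doses in √10 steps were combined with a fixed anchor-drug dose, or a single drug was given alone, by pin tool to lung cancer cell lines in 1536-well plates the day after seeding. Nuclei were stained and counted after 5 days. Relative viability is the nuclei count in treated wells over that in vehicle wells, taken as the median of duplicate plates.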

Etoposide + Luminespib = compound: COc1cc([C@@H]2c3cc4c(cc3[C@@H](O[C@@H]3O[C@@H]5CO[C@@H](C)O[C@H]5[C@H](O)[C@H]3O)[C@H]3COC(=O)[C@H]23)OCO4)cc(OC)c1O [Etoposide] + CCNC(=O)c1noc(-c2cc(C(C)C)c(O)cc2O)c1-c1ccc(CN2CCOCC2)cc1 [Luminespib] (partner 0.01 µM)
Procedure, shortened: as §1

Etoposide + Navitoclax = compound: COc1cc([C@@H]2c3cc4c(cc3[C@@H](O[C@@H]3O[C@@H]5CO[C@@H](C)O[C@H]5[C@H](O)[C@H]3O)[C@H]3COC(=O)[C@H]23)OCO4)cc(OC)c1O [Etoposide] + CC1(C)CCC(c2ccc(Cl)cc2)=C(CN2CCN(c3ccc(C(=O)NS(=O)(=O)c4ccc(N[C@H](CCN5CCOCC5)CSc5ccccc5)c(S(=O)(=O)C(F)(F)F)c4)cc3)CC2)C1 [Navitoclax] (partner 0.5 µM)
Procedure, shortened: as §1

Etoposide + Dasatinib = compound: COc1cc([C@@H]2c3cc4c(cc3[C@@H](O[C@@H]3O[C@@H]5CO[C@@H](C)O[C@H]5[C@H](O)[C@H]3O)[C@H]3COC(=O)[C@H]23)OCO4)cc(OC)c1O [Etoposide] + Cc1nc(Nc2ncc(C(=O)Nc3c(C)cccc3Cl)s2)cc(N2CCN(CCO)CC2)n1 [Dasatinib] (partner 0.075 µM)
Procedure, shortened: as §1

Cell Line	relative viability (Bleomycin + Crizotinib; first compound 0.01 µM)	relative viability (Bleomycin + Crizotinib; first compound 0.03162 µM)	relative viability (Bleomycin + Crizotinib; first compound 0.1 µM)	relative viability (Bleomycin + Crizotinib; first compound 0.3162 µM)	relative viability (Bleomycin + Crizotinib; first compound 1 µM)	relative viability (Etoposide + Luminespib; first compound 0.01 µM)	relative viability (Etoposide + Luminespib; first compound 0.03162 µM)	relative viability (Etoposide + Luminespib; first compound 0.1 µM)	relative viability (Etoposide + Luminespib; first compound 0.3162 µM)	relative viability (Etoposide + Luminespib; first compound 1 µM)	relative viability (Etoposide + Navitoclax; first compound 0.01 µM)	relative viability (Etoposide + Navitoclax; first compound 0.03162 µM)	relative viability (Etoposide + Navitoclax; first compound 0.1 µM)	relative viability (Etoposide + Navitoclax; first compound 0.3162 µM)	relative viability (Etoposide + Navitoclax; first compound 1 µM)	relative viability (Etoposide + Dasatinib; first compound 0.01 µM)	relative viability (Etoposide + Dasatinib; first compound 0.03162 µM)	relative viability (Etoposide + Dasatinib; first compound 0.1 µM)	relative viability (Etoposide + Dasatinib; first compound 0.3162 µM)	relative viability (Etoposide + Dasatinib; first compound 1 µM)
201T	0.997	0.947	0.902	0.843	0.784	0.839	1.11	0.952	0.754	0.539	1.25	1.23	1.13	1.14	1.02	0.639	0.655	0.524	0.548	0.477
A549	0.601	0.562	0.339	0.0813	0.0619						1.25	1.04	0.46	0.157	0.0716					
A-427	0.738	0.776	0.67	0.402	0.223	0.832	1.02	0.61	0.382	0.182	0.963	0.937	0.525	0.53	0.256	0.702	0.818	0.435	0.446	0.2
ABC-1	0.799	0.769	0.659	0.191	0.161	0.35	0.648	0.33	0.351	0.29						0.535	0.597	0.336	0.248	0.207
BEN	0.769	0.829	0.94	0.671	0.742	0.235	0.583		0.206	0.245	0.0656	0.0585		0.057	0.0632	0.353	0.416		0.304	0.351
CAL-12T	0.356	0.405	0.25	0.15	0.192	0.28	0.531	0.212	0.287	0.348	1.13	1.26	1.17	0.752	0.791	0.345	0.473	0.351	0.396	0.196
COR-L23	0.444	0.317	0.226	0.0998	0.099	0.573	0.802	0.536	0.214	0.153	0.935	1.02	1.07	0.554	0.236	0.398	0.461	0.428	0.26	0.161
COR-L 105	0.587	0.875	0.52	0.368	0.364	0.96	0.765	0.758	0.625	0.776	0.745	0.802	0.79	0.516	0.586	0.3	0.345	0.273	0.328	0.293
Calu-6	0.514	0.394	0.379	0.141	0.181						0.883	0.722	0.828	0.418	0.213					
ChaGo-K-1		0.999	0.754	0.385	0.333	0.467	0.473	0.38	0.211	0.229	1.11	0.956	0.755	0.391	0.274	0.479	0.59	0.51	0.441	0.146
EBC-1	0.204	0.193	0.2	0.198	0.151						0.319	0.41	0.254	0.378	0.225					
EKVX	0.87	0.803	0.7	0.448	0.316	0.921	0.885	0.444	0.658	0.307	0.892	0.983	0.759	0.446	0.251	0.619	0.529	0.354	0.37	0.282
EMC-BAC-2	0.628	0.626	0.738	0.318	0.241	0.895	0.932	0.651	0.297	0.248	1.08	1.05	0.83	0.297	0.161	0.319	0.333	0.193	0.16	0.112
EPLC-272H	0.776	0.88	0.655	0.358	0.152	0.185	0.238	0.207	0.265	0.12	1.22	1.25	0.71	0.962	0.436	0.373	0.342	0.222	0.354	0.245
H3255	0.61	0.742	0.55	0.378	0.287	0.877	0.829	0.576	0.703	0.379	0.538	0.556	0.334	0.348	0.14	0.424	0.367	0.345	0.306	0.274
HARA	0.938	0.952	0.974	0.54	0.36	0.403	0.999	0.682	0.226	0.106	1.11	1.16	1.17	0.864	0.337	0.263	0.298	0.259	0.23	0.181
HCC-15	0.731	0.725	0.627	0.326	0.242	0.473	0.303	0.366	0.15	0.178	0.652	0.647	0.626	0.31	0.125	0.623	0.64	0.537	0.261	0.0797
HCC-44	0.484	0.256	0.223	0.152	0.138	1.03	0.84	0.774	0.411	0.279	0.845	1.05	1.1	0.882	0.496					
HCC-78	0.31	0.294	0.297	0.229	0.267						0.728	0.798	0.341	0.313	0.158	0.435	0.39	0.33	0.334	0.152

Cell Line	relative viability (Bleomycin + Crizotinib; first compound 0.01 µM)	relative viability (Bleomycin + Crizotinib; first compound 0.03162 µM)	relative viability (Bleomycin + Crizotinib; first compound 0.1 µM)	relative viability (Bleomycin + Crizotinib; first compound 0.3162 µM)	relative viability (Bleomycin + Crizotinib; first compound 1 µM)	relative viability (Etoposide + Luminespib; first compound 0.01 µM)	relative viability (Etoposide + Luminespib; first compound 0.03162 µM)	relative viability (Etoposide + Luminespib; first compound 0.1 µM)	relative viability (Etoposide + Luminespib; first compound 0.3162 µM)	relative viability (Etoposide + Luminespib; first compound 1 µM)	relative viability (Etoposide + Navitoclax; first compound 0.01 µM)	relative viability (Etoposide + Navitoclax; first compound 0.03162 µM)	relative viability (Etoposide + Navitoclax; first compound 0.1 µM)	relative viability (Etoposide + Navitoclax; first compound 0.3162 µM)	relative viability (Etoposide + Navitoclax; first compound 1 µM)	relative viability (Etoposide + Dasatinib; first compound 0.01 µM)	relative viability (Etoposide + Dasatinib; first compound 0.03162 µM)	relative viability (Etoposide + Dasatinib; first compound 0.1 µM)	relative viability (Etoposide + Dasatinib; first compound 0.3162 µM)	relative viability (Etoposide + Dasatinib; first compound 1 µM)
HCC-366	0.152	0.137	0.0986	0.0238	0.0225						0.923	1.05	0.864	0.306	0.0332	0.644	0.774	0.36	0.178	0.0448
HCC-827	0.872	0.95	0.831	0.635	0.274	0.283	0.795	0.204	0.315	0.175	1.03	0.985	0.956	0.613	0.331	0.243	0.298	0.177	0.279	0.188
HOP-62	0.531	0.477	0.325	0.144	0.106	0.855	0.977	0.866	0.638	0.307	1.07	0.995	0.987	0.598	0.236	0.584	0.676	0.492	0.621	0.363
IA-LM	0.502	0.64	0.476	0.523	0.29						0.595	0.742	0.731	0.616	0.431					
LC-2-ad	0.428	0.404	0.326	0.226	0.275	0.899	0.833	0.711	0.34	0.305	0.586	0.446	0.405	0.276	0.183	0.546	0.612	0.451	0.244	0.142
LCLC-103H	0.956	1.01	1	0.915	0.588	0.924	1.17	0.954	0.832	0.541						0.466	0.482	0.417	0.546	0.42
NCI-H358	0.484	0.486	0.514	0.29	0.263	0.243	0.327	0.209	0.179	0.095						0.166	0.179	0.112	0.149	0.106
NCI-H522						1.03	0.988	0.866	0.907	0.601						0.861	0.883	0.805	0.895	0.874
NCI-H650	0.502	0.718	0.629	0.237	0.303	0.695	0.895	0.336	0.179	0.174						0.457	0.472	0.342	0.372	0.215
NCI-H661	0.82	0.943	0.745	0.508	0.425	0.956	0.901	0.898	0.553	0.435						0.787	1.02	0.671	0.586	0.306
NCI-H1299	0.896	0.943	0.715	0.402	0.331						1.06	1.02	1.05	0.946	0.785					
NCI-H1395						0.713	0.539	0.607	0.54	0.415	1.21	1.15	0.893	0.988	0.682	0.422	0.414	0.368	0.406	0.438
NCI-H1563	0.714	0.694	0.723	0.594	0.518	0.502	0.463	0.479	0.408	0.396						0.416	0.514	0.435	0.387	0.349
NCI-H1623						0.541	0.537	0.347	0.405	0.28						0.68	0.592	0.334	0.267	0.294
NCI-H1703	0.751	0.655	0.676	0.322	0.195						1.04	1.12	0.575	0.527	0.307					
NCI-H1793						0.203	0.184		0.181	0.169	0.382	0.564		0.387	0.324	0.402	0.348		0.419	0.214
NCI-H2342						0.622	0.728	0.425	0.352	0.29						0.317	0.315	0.3	0.229	0.254
SW 900						0.185	0.21	0.168	0.175	0.153						0.62	0.659	0.395	0.591	0.147
